From patent US5470950A, “Biologically active amphiphilic peptide compositions and uses therefor” (Magainin Pharmaceuticals Inc., priority 1994, dated 1995)
Ends that are not written are not given here.

How the values were obtained:
Experiment in all cases: Antibacterial MIC assay (NCCLS M7-T2 microtiter broth dilution)
Type in all cases: cell-based
[1] = test system: S. aureus strain ATCC 25923; conditions: S. aureus ATCC 25923; Mueller Hinton broth, 16-20 hours at 37° C.; lowest concentration giving a clear well
Description: (§1) Table I, which follows, indicates the Minimal Inhibitory Concentration (MIC) in μg/ml of Peptides (SEQ ID NO:1) through (SEQ ID NO:3), (SEQ ID NO:5), (SEQ ID NO:6), (SEQ ID NO:9) through (SEQ ID NO:11), and (SEQ ID NO:17) against S.aureus strain ATCC 25923, P. aeruginosa strain ATCC 27853, and E.coli ATCC strain 25922. The procedure for the antibacterial assay is based upon the guidelines of the National Committee for Clinical Laboratory Standards, Document M7-T2, Volume 8, No. 8, 1988. Stock solutions of peptides (SEQ ID NO: 1) through (SEQ ID NO:3), (SEQ ID NO:5), (SEQ ID NO:S), (SEQ ID NO:9) through (SEQ ID NO:12), and […] in accordance with the present invention are prepared at a concentration of 512 μg/ml in sterile deionized distilled water and stored at -70° C. Each peptide is a C-terminal amide and may or may not be acetylated at the N-Terminus. An acetyl group at the N-terminus is indicated by an X. The stock peptide solution is diluted in serial dilutions (1:2) down the wells of a microtiter plate so that the final concentrations of peptides in the wells are 0.25, 0.50, i, 2,4, 8, 16, 32, 64, 128, and 256 μg/ml. 1-5×10^5 CFUs/ml of either S. aureus ATCC 25923, E. coli ATCC 25922, or P. aeruginosa ATCC 27853 were added to the wells in full strength Mueller Hinton broth (BBL 11443) from a mid-log culture. The inoculum is standardized spectrophotometrically at 600 nm and is verified by colony counts. The plates are incubated for 16-20 hours at 37° C., and the minimal inhibitory concentration (MIC) for each peptide is determined. Minimal inhibitory concentration is defined as the lowest concentration of peptide which produces a clear well in the microtiter plate. The minimal inhibitory concentration of each of (SEQ ID NO:1) through (SEQ ID NO:3), (SEQ ID NO:5), (SEQ ID NO:6), (SEQ ID NO:9) through (SEQ ID NO:11), and (SEQ ID NO:17) is given in Table I below.

[2] = test system: P. aeruginosa strain ATCC 27853; conditions: P. aeruginosa ATCC 27853; Mueller Hinton broth, 16-20 hours at 37° C.; lowest concentration giving a clear well
Description: as §1

E.coli ATCC strain 25922 = conditions: E. coli ATCC 25922; Mueller Hinton broth, 16-20 hours at 37° C.; lowest concentration giving a clear well
Description: as §1

With “Ac-LKKLLKKLKKL-NH2 [X-(SEQ ID NO: 17)-NH2]” the “Minimal Inhibitory Concentration S. aureus” value [1] was 256 µg/mL, the “Minimal Inhibitory Concentration P. aeruginosa” value [2] was 8,16 μg/ml and the “Minimal Inhibitory Concentration E. coli” value (E.coli ATCC strain 25922) was 32,64 μg/ml.

“Ac-LKLLKKLLKKPKKLLKKL-NH2 [X-(SEQ ID NO: 10)-NH2]” was tested, and the “Minimal Inhibitory Concentration S. aureus” value [1] was 16,32 μg/ml, the “Minimal Inhibitory Concentration P. aeruginosa” value [2] was 16 µg/mL and the “Minimal Inhibitory Concentration E. coli” value (E.coli ATCC strain 25922) was 64 µg/mL.

With “Ac-KKLLKKLKKLLKKLRR-NH2 [X-(SEQ ID NO: 5)-NH2]” the “Minimal Inhibitory Concentration S. aureus” value [1] was 4 µg/mL, the “Minimal Inhibitory Concentration P. aeruginosa” value [2] was 8 µg/mL and the “Minimal Inhibitory Concentration E. coli” value (E.coli ATCC strain 25922) was 32 µg/mL.

LKKLKKLLKLL-NH2 [(SEQ ID NO.: 1)-NH2] was tested, and the “Minimal Inhibitory Concentration S. aureus” value [1] was 64,128 μg/ml, the “Minimal Inhibitory Concentration P. aeruginosa” value [2] was 8,16 μg/ml and the “Minimal Inhibitory Concentration E. coli” value (E.coli ATCC strain 25922) was 8,16 μg/ml.

“Ac-LLKKLKKLLKLL-NH2 [X-(SEQ ID NO: 2)-NH2]” was tested, and the “Minimal Inhibitory Concentration S. aureus” value [1] was 16 µg/mL, the “Minimal Inhibitory Concentration P. aeruginosa” value [2] was 16 µg/mL and the “Minimal Inhibitory Concentration E. coli” value (E.coli ATCC strain 25922) was 8,16 μg/ml.

LLKKLKKLLKLL-NH2 [(SEQ ID NO.:2)-NH2] was tested, and the “Minimal Inhibitory Concentration S. aureus” value [1] was 16 µg/mL, the “Minimal Inhibitory Concentration P. aeruginosa” value [2] was 16 µg/mL and the “Minimal Inhibitory Concentration E. coli” value (E.coli ATCC strain 25922) was 8,16 μg/ml.

For “Ac-LKLLKKLLKKNKKLLKKL-NH2 [X-(SEQ ID NO: 9)-NH2]”, the “Minimal Inhibitory Concentration S. aureus” value [1] was 16 µg/mL, the “Minimal Inhibitory Concentration P. aeruginosa” value [2] was 8 µg/mL and the “Minimal Inhibitory Concentration E. coli” value (E.coli ATCC strain 25922) was 64 µg/mL.

For “Ac-KLLKKLKKLLKLL-NH2 [X-(SEQ ID NO: 3)-NH2]”, the “Minimal Inhibitory Concentration S. aureus” value [1] was 64 µg/mL, the “Minimal Inhibitory Concentration P. aeruginosa” value [2] was 16 µg/mL and the “Minimal Inhibitory Concentration E. coli” value (E.coli ATCC strain 25922) was 8,16 μg/ml.

LKKLLKKLKKL-NH2 [(SEQ ID NO: 17)-NH2] was tested, and the “Minimal Inhibitory Concentration S. aureus” value [1] was over 256 µg/mL, the “Minimal Inhibitory Concentration P. aeruginosa” value [2] was 32,64 μg/ml and the “Minimal Inhibitory Concentration E. coli” value (E.coli ATCC strain 25922) was 64,128 μg/ml.

For KLLKKLKKLLKLL-NH2 [(SEQ ID NO.:3)-NH2], the “Minimal Inhibitory Concentration S. aureus” value [1] was 64 µg/mL and the “Minimal Inhibitory Concentration P. aeruginosa” value [2] was 16 µg/mL.

With “Ac-LKKLKKLLKLL-NH2 [X-(SEQ ID NO: 1)-NH2]” the “Minimal Inhibitory Concentration S. aureus” value [1] was 16 µg/mL, the “Minimal Inhibitory Concentration P. aeruginosa” value [2] was 4,8 μg/ml and the “Minimal Inhibitory Concentration E. coli” value (E.coli ATCC strain 25922) was 4 µg/mL.
